# Where “and” joins values, the source holds several entries; their conditions need not be identical. Equal values may be shown once. Read-outs that look alike come from different tables or passages of the source.
# How the values were obtained:
# AMPA receptors [1] = test: AMPA ES Cell FLIPR Screen, G7330A (single dose % effect); format: cell-based, murine; details: Dose 32.0 uM; mean (range and n in cells below); ES cell-derived neurons, 32 uM AMPA challenge; negative control AMPA alone, positive control AMPA plus cyclothiazide
# Procedure: (§1) The murine ES cell line used was E14-Sx1-16C, which has a targeted mutation in the Sox1 gene, a neuroectodermal marker, that offers G418 resistance when the Sox1 gene is expressed (Stem Cell Sciences). ES cells were maintained undifferentiated as previously described (Roach). […] ES cells were plated on gelatin-coated dishes (BD Biosciences), the media was changed daily and the cells were dissociated with 0.05% Trypsin EDTA (Invitrogen) every other day.
# (§2) Embryoid Body Formation: Prior to embryoid body (EB) formation the ES cells were weaned from FBS onto Knockout Serum Replacement (KSR) (Invitrogen). To form EBs, ES cells were dissociated into a single cell suspension then 3×10^6 cells were plated in bacteriology dishes (Nunc 4014) and grown as a suspension culture in NeuroEB-I medium that consisted of Knockout™ D-MEM (Invitrogen), supplemented with 10% KSR (Invitrogen), 0.2 mM L-Glutamine (Invitrogen), 0.1 mM MEM non-essential amino acids (Invitrogen), 30 μg/ml Gentamicin (Invitrogen), 1000 u/ml ESGRO (Chemicon), 0.1 mM 2-Mercaptoethanl (Sigma) and 150 ng/ml Transferrin (Invitrogen). The plates were put on a Stovall Belly Button shaker in an atmospheric oxygen incubator. The media was changed on day 2 of EB formation with NeuroEB-I and on day 4 with NeuroEB-II (NeuroEB-I plus 1 μg/ml mNoggin [R&D Systems]).
# (§3) Neuronal Precursor Selection and Expansion: On day 5 of EB formation, EBs were dissociated with 0.05% Trypsin EDTA, and 4×10^6 cells/100 mm dish were plated on Laminin coated tissue culture dishes in NeuroII-G418 medium that consisted of a base medium of a 1:1 mixture of D-MEM/F12 supplemented with N2 supplements and NeuroBasal Medium supplemented with B27 supplement and 0.1 mM L-Glutamine (all from Invitrogen). The base medium was then supplemented with 10 ng/ml bFGF (Invitrogen), 1 μg/ml mNoggin, 500 ng/ml SHH-N, 100 ng/ml FGF-8b (R&D Systems), 1 μg/ml Laminin and 200 μg/ml G418 (Invitrogen) for selection of neuronal precursors expressing Sox-1. The plates were put in an incubator that contained 2% Oxygen and were maintained in these conditions. During the 6-day selection period, the NeuroII media was changed daily. On day 6, the surviving neuronal precursor foci were dissociated with 0.05% Trypsin EDTA and the cells were plated at a density of 1.5×10^6 cells/100 mm Laminin coated dish in NeuroII-G418 medium. The cells were dissociated every other day for expansion, and prepared for Cryopreservation at passage 3 or 4. The cryopreservation medium contained 50% KSR, 10% Dimethyl Sulfoxide (DMSO) (Sigma) and 40% NeuroI-G418I medium. Neuronas precursors were crypreserved at a concentration of 4×10^6cells/ml and 1 ml/cryovial in a controlled rate freezer overnight then transferred to an ultra-low freezer or liquid nitrogen for long-term storage,
# (§4) Neuronal Differentiation: Cryopreserved ES cell-derived neuronal precursors were thawed by the rapid thaw method in a 37-degree water-bath. The cells were transferred from the cryovial to a 100 mm Laminin coated tissue culture dish that already contained NeuroII-G418 that had been equilibrated in a 2% Oxygen incubator. The media was changed with fresh NeuroII-G418 the next day. The cells were dissociated every other day as described above for expansion to generate enough cells to plate for the screen. For the screen, the cells were plated into 384-well poly-d-lysine coated tissue culture dishes (BD Biosciences) by the automated SelecT at a cell density of 6K cells/well in differentiation medium NeuroIII that contained a 4:1 ratio of the NeuroBasalMedium/B27:D-MEM/F12/N2 supplemented with 1 μM cAMP (Sigma), 200 μM Ascorbic Acid (Sigma), 1 μg/ml Laminin (Invitrogen) and 10 ng/ml BDNF (R&D Systems). The plates were put in an incubator with 2% Oxygen and allowed to complete the differentiation process for 7 days. The cells could then be used over a 5-day period for the high throughput screen.
# (§5) Procedure for AMPA ES Cell FLIPR Screen […]
# AMPA receptors [2] = test: AMPA ES Cell FLIPR Screen, G7330B (EC50 and % effect); format: cell-based, murine; details: for G7330B (U): % Effect: Dose 32.0 uM; for EC50: ES cell-derived neurons, 32 uM AMPA challenge
# Procedure: as §1, §2, §3, §4, §5
# [3] = individual determinations, read-out: G7330B (U): EC50
# [4] = mean of individual determinations (range and n in cells below), read-out: G7330B mean EC50
EC50 (AMPA receptors [2]; [3]) [µM],EC50 (AMPA receptors [2]; [4]) [µM],Structure (SMILES),G7330A: % Effect (AMPA receptors [1]) [%],G7330B (U): % Effect (AMPA receptors [2]; individual determinations)
> 32,> 32,"O=S(=O)(NC1CNCCC1c1ccc(-c2ccccc2)cc1)C1CC1 (stereo not drawn) [Example 14, Cyclopropanesulfonic acid(trans-4-biphenyl-4-yl-piperidin-3-yl)-amide]",3.36,4.61% and 2.97% and 3.26% and 0.0952% and 0.150% and 1.02%
> 32,> 32,"CCS(=O)(=O)N[C@@H]1CNCC[C@H]1c1ccc(-c2ccccc2)cc1 (relative stereo) [Example 9, Ethanesulfonic acid (trans-4-biphenyl-4-yl-piperidin-3-yl)-amide]",59.1,73.4% and 60.8% and 66.9%

# From patent US20100035865A1, “Sulfonamides and Pharmaceutical Compositions Thereof” (PFIZER INC, priority 2007, published 2010)
